Numbers after ± are expanded uncertainties.
Assay: mn = molality of the nth substance listed, in mol/kg
Conditions: 100 kPa, Liquid; for speed of sound: Frequency=3 MHz, Single path-length method; for mass density: Vibrating tube method

OCCO [1,2-ethanediol] + O
speed of sound (293.15 K, m1 = 0.09889): 1485.3 ± 2 m/s | speed of sound (293.15 K, m1 = 0.1989): 1488.3 ± 2 m/s | speed of sound (293.15 K, m1 = 0.2997): 1491.2 ± 2 m/s | speed of sound (293.15 K, m1 = 0.3948): 1493.9 ± 2 m/s | speed of sound (293.15 K, m1 = 0.5016): 1496.8 ± 2 m/s | mass density (293.15 K, m1 = 0.09889): 999.06 ± 0.3 kg/m3 | mass density (293.15 K, m1 = 0.1989): 999.88 ± 0.3 kg/m3 | mass density (293.15 K, m1 = 0.2997): 1000.68 ± 0.31 kg/m3 | mass density (293.15 K, m1 = 0.3948): 1001.41 ± 0.31 kg/m3 | mass density (293.15 K, m1 = 0.5016): 1002.2 ± 0.31 kg/m3 | speed of sound (303.15 K, m1 = 0.09889): 1511.1 ± 2 m/s | speed of sound (303.15 K, m1 = 0.1989): 1513.8 ± 2 m/s | speed of sound (303.15 K, m1 = 0.2997): 1516.2 ± 2 m/s | speed of sound (303.15 K, m1 = 0.3948): 1518.7 ± 2 m/s | speed of sound (303.15 K, m1 = 0.5016): 1521.2 ± 2 m/s | mass density (303.15 K, m1 = 0.09889): 996.47 ± 0.3 kg/m3 | mass density (303.15 K, m1 = 0.1989): 997.26 ± 0.3 kg/m3 | mass density (303.15 K, m1 = 0.2997): 998.03 ± 0.31 kg/m3 | mass density (303.15 K, m1 = 0.3948): 998.73 ± 0.31 kg/m3 | mass density (303.15 K, m1 = 0.5016): 999.48 ± 0.31 kg/m3

OCCOCCO [diethylene glycol] + O
speed of sound (293.15 K, m1 = 0.09849): 1487.7 ± 2 m/s | speed of sound (293.15 K, m1 = 0.1974): 1493.1 ± 2 m/s | speed of sound (293.15 K, m1 = 0.295): 1498.1 ± 2 m/s | speed of sound (293.15 K, m1 = 0.4101): 1504.1 ± 2.1 m/s | speed of sound (293.15 K, m1 = 0.5006): 1508.3 ± 2.1 m/s | mass density (293.15 K, m1 = 0.09849): 999.65 ± 0.3 kg/m3 | mass density (293.15 K, m1 = 0.1974): 1001.03 ± 0.31 kg/m3 | mass density (293.15 K, m1 = 0.295): 1002.36 ± 0.31 kg/m3 | mass density (293.15 K, m1 = 0.4101): 1003.86 ± 0.32 kg/m3 | mass density (293.15 K, m1 = 0.5006): 1004.99 ± 0.33 kg/m3 | speed of sound (303.15 K, m1 = 0.09849): 1513.1 ± 2 m/s | speed of sound (303.15 K, m1 = 0.1974): 1517.6 ± 2 m/s | speed of sound (303.15 K, m1 = 0.295): 1522 ± 2 m/s | speed of sound (303.15 K, m1 = 0.4101): 1526.9 ± 2 m/s | speed of sound (303.15 K, m1 = 0.5006): 1530.6 ± 2.1 m/s | mass density (303.15 K, m1 = 0.09849): 997.07 ± 0.3 kg/m3 | mass density (303.15 K, m1 = 0.1974): 998.39 ± 0.31 kg/m3 | mass density (303.15 K, m1 = 0.295): 999.64 ± 0.31 kg/m3 | mass density (303.15 K, m1 = 0.4101): 1001.05 ± 0.32 kg/m3 | mass density (303.15 K, m1 = 0.5006): 1002.15 ± 0.32 kg/m3

OCC(O)CO [glycerol] + O
speed of sound (293.15 K, m1 = 0.01): 1483.2 ± 2 m/s | speed of sound (293.15 K, m1 = 0.03): 1484 ± 2 m/s | speed of sound (293.15 K, m1 = 0.05): 1484.8 ± 2 m/s | mass density (293.15 K, m1 = 0.01): 998.45 ± 0.3 kg/m3 | mass density (293.15 K, m1 = 0.03): 998.87 ± 0.3 kg/m3 | mass density (293.15 K, m1 = 0.05): 999.29 ± 0.3 kg/m3 | speed of sound (298.15 K, m1 = 0.01): 1497 ± 2 m/s | speed of sound (298.15 K, m1 = 0.03): 1497.8 ± 2 m/s | speed of sound (298.15 K, m1 = 0.05): 1498.6 ± 2 m/s | mass density (298.15 K, m1 = 0.01): 997.31 ± 0.3 kg/m3 | mass density (298.15 K, m1 = 0.03): 997.71 ± 0.3 kg/m3 | mass density (298.15 K, m1 = 0.05): 998.12 ± 0.3 kg/m3 | speed of sound (303.15 K, m1 = 0.01): 1509.3 ± 2 m/s | speed of sound (303.15 K, m1 = 0.03): 1510 ± 2 m/s | speed of sound (303.15 K, m1 = 0.05): 1510.7 ± 2 m/s | mass density (303.15 K, m1 = 0.01): 995.87 ± 0.3 kg/m3 | mass density (303.15 K, m1 = 0.03): 996.3 ± 0.3 kg/m3 | mass density (303.15 K, m1 = 0.05): 996.72 ± 0.3 kg/m3 | speed of sound (308.15 K, m1 = 0.01): 1519.9 ± 2 m/s | speed of sound (308.15 K, m1 = 0.03): 1520.6 ± 2 m/s | speed of sound (308.15 K, m1 = 0.05): 1521.2 ± 2 m/s | mass density (308.15 K, m1 = 0.01): 994.25 ± 0.3 kg/m3 | mass density (308.15 K, m1 = 0.03): 994.68 ± 0.3 kg/m3 | mass density (308.15 K, m1 = 0.05): 995.09 ± 0.3 kg/m3

OCCOCCOCCO [triethylene glycol] + O
speed of sound (293.15 K, m1 = 0.0965): 1489.9 ± 2 m/s | speed of sound (293.15 K, m1 = 0.2002): 1498 ± 2 m/s | speed of sound (293.15 K, m1 = 0.292): 1504.8 ± 2.1 m/s | speed of sound (293.15 K, m1 = 0.3986): 1513.1 ± 2.1 m/s | speed of sound (293.15 K, m1 = 0.4988): 1520.5 ± 2.2 m/s | mass density (293.15 K, m1 = 0.0965): 1000.31 ± 0.31 kg/m3 | mass density (293.15 K, m1 = 0.2002): 1002.46 ± 0.31 kg/m3 | mass density (293.15 K, m1 = 0.292): 1004.29 ± 0.32 kg/m3 | mass density (293.15 K, m1 = 0.3986): 1006.36 ± 0.34 kg/m3 | mass density (293.15 K, m1 = 0.4988): 1008.22 ± 0.36 kg/m3 | speed of sound (303.15 K, m1 = 0.0965): 1514.9 ± 2 m/s | speed of sound (303.15 K, m1 = 0.2002): 1521.8 ± 2 m/s | speed of sound (303.15 K, m1 = 0.292): 1528 ± 2.1 m/s | speed of sound (303.15 K, m1 = 0.3986): 1535.1 ± 2.1 m/s | speed of sound (303.15 K, m1 = 0.4988): 1541.7 ± 2.1 m/s | mass density (303.15 K, m1 = 0.0965): 997.73 ± 0.31 kg/m3 | mass density (303.15 K, m1 = 0.2002): 999.86 ± 0.31 kg/m3 | mass density (303.15 K, m1 = 0.292): 1001.67 ± 0.32 kg/m3 | mass density (303.15 K, m1 = 0.3986): 1003.69 ± 0.34 kg/m3 | mass density (303.15 K, m1 = 0.4988): 1005.54 ± 0.35 kg/m3

O [water] + OCC(O)CO
speed of sound (298.15 K, m2 = 0): 1495.9 ± 2 m/s | speed of sound (303.15 K, m2 = 0): 1508.5 ± 2 m/s | speed of sound (308.15 K, m2 = 0): 1519.1 ± 2 m/s

O [water] + OCCO
speed of sound (303.15 K, m2 = 0): 1508.5 ± 2 m/s

O [water] + OCCOCCO
speed of sound (303.15 K, m2 = 0): 1508.5 ± 2 m/s

O [water] + OCCOCCOCCO
speed of sound (303.15 K, m2 = 0): 1508.5 ± 2 m/s
